The record followed here is patent US20130280235A1, “METHODS OF DIAGNOSIS AND TREATMENT FOR METABOLIC DISORDERS” (DiaMedica Inc., priority 2006, published 2013).

Test [1] has as its system Wistar rats. The test can be described thus: Oral glucose challenge (2 g/kg) in fasted rats, serum glucose by enzymatic method (Mutaratase-GOD). It is filed as in vivo, rat. As to conditions: male Wistar rats; for Blood Glucose at T0: fasted, agent given one hour before, sample immediately prior to oral glucose loading; for Blood Glucose at T90: 90 minutes post oral glucose challenge 2 g/kg; for Change in Blood Glucose: T0 to T90 after oral glucose 2 g/kg. How it is done:
Groups of 5 male Wistar rats weighing 200+/−10 g were employed. Fasted animals were injected with agent or placebo (GLP-1, 1 nmole/kg, iv) and/or gavaged with agent or placebo (tissue kallikrein (SIGMA), 200 U) one hour prior to glucose challenge. A blood sample was taken immediately prior oral glucose loading (2 g/kg). At 90 minutes post glucose challenge a second blood sample was taken. The serum glucose samples were assessed by enzymatic method (Mutaratase-GOD) for the time points.

Test [2] has as its system Sprague-Dawley rats. In words: Euglycemic hyperinsulinemic clamp in rats made insulin resistant by a high-sucrose diet. Format: in vivo, rat. As to conditions: up to one unit by bolus IV injection, last hour of 2 h clamp, versus saline controls. The protocol:
A litter of 14 Sprague-Dawley rats, (from Charles River, St-Constant, Canada), obtained at 5 weeks old are accommodated individually in cages. The animals are acclimatized to a temperature of 22° C.+/−1° C. and constant humidity and airflow conditions. The animals are fed a high sucrose diet. During the 2 weeks prior to experimentation, the animals have free access to tap water, are provided their controlled diet and their body weight and food intake are recorded every other day. The high-sucrose diet consists of 62.5% (wt/wt) sucrose, 6.5% corn oil, 20% protein (casein, purified high nitrogen), 0.3% dl-methionine, 1% vitamin mix, 4.7% mineral mix and 5% cellulose. The energy density of the high-sucrose diet is 16.81 kJ/g. This high-sucrose diet induces insulin resistance. […]
Analytical Methods—The rats are anesthetized and venous blood samples are taken for plasma glucose and insulin assessment and rapidly centrifuged. […] Resting heart rate, blood pressure and regional blood flows are recorded over 30 minutes in quiet, unrestrained and unsedated rats.
Euglycemic Clamp Methodology—All rats receive an infusion of regular porcine insulin at a rate of 16 mU·kg^−1·min^−1 for 2 hours. […] The Euglycemic hyperinsulinemic clamp is performed over 2 hours, while blood pressure, heart rate, and regional blood flow is measured continuously with blood samples. […]

As to glucagon like peptide 1 [GLP-1], in test [1], the “Blood Glucose at T0” value was 110 mg/dL, the “Blood Glucose at T90” value is 216 mg/dL and the “Change in Blood Glucose” value is recorded as 116.1 ± 18.1 mg/dL.
Consider kallikrein, for which the “Area under the curve of glucose required to maintain euglycemia (index of insulin sensitivity)” value in test [2] is on record as “greater area under the curve”.
Take tissue kallikrein [tissue kallkrein]: in test [1], the “Blood Glucose at T0” value is on record as 109 mg/dL, the “Blood Glucose at T90” value was 229 mg/dL and the “Change in Blood Glucose” value is 120.2 ± 20.7 mg/dL.
